Molecular target: wild-type T7 RNA polymerase (Escherichia phage T7, UniProt P00573)
Test: Accelerating effect of polyamines on in vitro transcription activity of T7 RNA polymerase ([α32P]UTP incorporation, gel electrophoresis)
Type: biochemical, bacteriophage T7
Parameters: key: fold radioactivity relative to blank without polyamine
Conditions: polyamine final concentration 2 mM, 37° C. for one hour; amplification of radioactivity of transcription products compared to a blank without polyamine
Experimental: An activation level was evaluated by observing an effect of a polyamine on in vitro transcription activation using bacteriophage T7 RNA polymerase in the reaction system below.
Each polyamine was added to 10 μl of reaction solution (40 mM Tris-Cl, pH 8.0, 8 mM MgCl2, 5 mM DTT, 200 µM GMP, wild-type T7 RNA polymerase 5U, 0.2 μCi [α32P]UTP, dsDNA produced by cleavage of pBluescript [Stratagene] by a restriction enzyme Pvull 500 μM as rNTP template DNA) to yield a final concentration of 2 mM, then reacted at 37° C. for one hour. After the reaction, 10 μl of formamide loading dye (98% formamide, 10 mM EDTA) was added to the products, heated at 90° C. for modification, subsequently analyzed by electrophoresis on 4% acrylamide gel. The gel was dried after the electrophoresis, observed for radioactivity contained in the transcription products using the BAS2000 image analysis system (Fujiphotofilm Inc.), and evaluated for activation level of each polyamine.
Data is given in amplification of radioactivity compared to a blank in which a reaction is carried out in parallel in the same condition excepting no polyamine was added.

wild-type T7 RNA polymerase, sequence (P00573 whole entry): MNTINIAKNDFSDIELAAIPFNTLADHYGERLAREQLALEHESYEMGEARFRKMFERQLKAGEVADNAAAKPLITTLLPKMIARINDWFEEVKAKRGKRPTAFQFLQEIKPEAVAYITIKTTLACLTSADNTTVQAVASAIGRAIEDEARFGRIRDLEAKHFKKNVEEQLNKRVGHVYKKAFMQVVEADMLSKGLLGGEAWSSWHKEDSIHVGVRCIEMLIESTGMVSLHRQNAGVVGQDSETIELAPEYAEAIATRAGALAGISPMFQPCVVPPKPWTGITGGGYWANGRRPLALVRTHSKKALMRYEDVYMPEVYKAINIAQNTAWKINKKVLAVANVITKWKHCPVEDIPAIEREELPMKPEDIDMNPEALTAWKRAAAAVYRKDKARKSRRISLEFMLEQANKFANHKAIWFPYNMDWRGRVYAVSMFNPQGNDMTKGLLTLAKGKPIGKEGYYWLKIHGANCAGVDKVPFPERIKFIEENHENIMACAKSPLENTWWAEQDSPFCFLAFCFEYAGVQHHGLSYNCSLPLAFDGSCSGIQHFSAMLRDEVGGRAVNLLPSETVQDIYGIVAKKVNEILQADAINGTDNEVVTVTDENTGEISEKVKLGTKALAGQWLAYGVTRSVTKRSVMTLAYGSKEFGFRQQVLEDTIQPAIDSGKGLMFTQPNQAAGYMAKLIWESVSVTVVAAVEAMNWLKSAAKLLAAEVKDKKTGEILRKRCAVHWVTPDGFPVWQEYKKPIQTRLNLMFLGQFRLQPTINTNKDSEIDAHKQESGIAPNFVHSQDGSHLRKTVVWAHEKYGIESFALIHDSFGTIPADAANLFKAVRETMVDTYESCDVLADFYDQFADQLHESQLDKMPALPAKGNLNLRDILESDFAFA

Compound | Activity Level
CCN(CCCCCN(CC)S(=O)(=O)c1ccc(C)cc1)S(=O)(=O)c1ccc(C)cc1 [Compound 22, N1,N5-di(p-toluenesulfonyl)-di(ethylamino)pentane] | 1.43
CCNCCCCNCCCCCCCCCNCCCCNCC [Compound 15f, 1,19-di(ethylamino)-5,15-diazanonadecane] | 1.18
CCNCCCNCCCCN [Compound 18, 1-ethylamino-8-amino-4-azaoctane] | 1.12
CCNCCCCNCCCCCCNCCCCNCC [Compound 15c, 1,16-di (ethylamino)-5,12-diazahexadecane] | 1.12
CCNCCCCNCCCCCCCCNCCCCNCC [Compound 15e, 1, 18-di(ethylamino)-5,14-diazaoctadecane] | 2.52
NCCCCNCCCCCCCCNCCCCN [Compound 19, 1,18-diamino-5,14-diazaoctadecane] | 1.41
CCNCCCCNCCCCCCCNCCCCNCC [Compound 15d, 1,17-di(ethylamino)-5,13-diazaheptadecane] | 1.29
CCN(CCCCCCCCN(CC)S(=O)(=O)c1ccc(C)cc1)S(=O)(=O)c1ccc(C)cc1 [Compound 20, N1,N8-di(p-toluenesulfonyl)-di(ethylamino)-octane] | 1.11
CCNCCCCCNCC [Compound 23, N1,N5-di(ethylamino)pentane] | 3.52
CCNCCCCNCCCCNCCCCNCC [Compound 15a, 1,14-di(ethylamino)-5,10-diazatetradecane] | 1.21
CCNCCCCNCCCCCNCCCCNCC [Compound 15b, 1,15-di(ethylamino)-5,11-diazapentadecane] | 1.18
CCNCCCCCCCCNCC [Compound 21, N1,N8di(ethylamino)-octane] | 4.91
CCNCCCCNCCCCCCCCCCNCCCCNCC [Compound 15g, 1,20-di(ethylamino)-5,16-diazaeicosane] | 2.01

From US6627399B1, “RNA polymerase transcription promoters and nucleic acid sequencing method” (Riken, priority 1998, dated 2003)
